Results on 13 compounds are retold here after PubChem BioAssay AID216 (DTP/NCI, 2004).

Several values for one entry are separate records, joined by “and”; a condition that tells them apart may be missing. Identical values can stand only once. Inconclusive results and toxic doses are left out.

The test has as its system BDF1 mice, P288 leukemia ip, survival T/C. The test can be described thus: NCI In Vivo Anticancer Drug Screen. Data for tumor model P288 Lymphocytic Leukemia (intraperitoneal) in B6D2F1 (BDF1) mice. To be noted: endpoint: survival time, mean or median, higher = longer survival. As for the experimental part:
The antitumor activity of compounds was measured in mice bearing transplantable tumors. Survival or tumor size were measured and the results are expressed as the measurement made in the treated group (T) divided by the measurement made in the vehicle treated control group (C). The tumor model used in this assay is P288 Lymphocytic Leukemia (intraperitoneal) in B6D2F1 (BDF1) mice

Where [1] appears, read: dose: 31.25 mg/kg/injection, schedule: Q01DX Z (ip), vehicle: carboxymethylcellulose (CMC).
Where [2] appears, read: dose: 62.5 mg/kg/injection, schedule: Q01DX Z (ip), vehicle: carboxymethylcellulose (CMC).
[3] abbreviates: dose: 125.0 mg/kg/injection, schedule: Q01DX Z (ip), vehicle: carboxymethylcellulose (CMC).
Where [4] appears, read: dose: 250.0 mg/kg/injection, schedule: Q01DX Z (ip), vehicle: carboxymethylcellulose (CMC).

On to `CN(C)c1ccc(/C=C\c2ccnc3ccccc23)cc1`, for which the T/C is, setting by setting: (dose: 6.25 mg/kg/injection, schedule: Q01DX Z (ip), vehicle: water) 98 % of control; (dose: 12.0 mg/kg/injection, schedule: Q01DX010 (ip), vehicle: saline) 88 % of control; (dose: 12.5 mg/kg/injection, schedule: Q01DX Z (ip), vehicle: water) 98 % of control; (dose: 18.0 mg/kg/injection, schedule: Q01DX010 (ip), vehicle: saline) 88 % of control; (dose: 25.0 mg/kg/injection, schedule: Q01DX Z (ip), vehicle: water) 100 % of control; (dose: 27.0 mg/kg/injection, schedule: Q01DX010 (ip), vehicle: saline) 94 % of control. The T/C was 88 % of control (dose: 40.0 mg/kg/injection, schedule: Q01DX010 (ip), vehicle: saline); 105 % of control (dose: 50.0 mg/kg/injection, schedule: Q01DX Z (ip), vehicle: water); 108 % of control (dose: 100.0 mg/kg/injection, schedule: Q01DX Z (ip), vehicle: water); 90 % of control (dose: 200.0 mg/kg/injection, schedule: Q01DX Z (ip), vehicle: water).
Turning to `COc1cc2c(c(OC)c1OC)-c1ccc(N)c(=O)cc1[C@@H](NC(C)=O)CC2`, the T/C runs as follows: (dose: 0.5 mg/kg/injection, schedule: Q01DX010 (ip), vehicle: saline) 157 % of control; (dose: 1.0 mg/kg/injection, schedule: Q01DX010 (ip), vehicle: saline) 164 % of control and 214 % of control; (dose: 2.0 mg/kg/injection, schedule: Q01DX010 (ip), vehicle: saline) 176 % of control and 242 % of control; (dose: 4.0 mg/kg/injection, schedule: Q01DX010 (ip), vehicle: saline) 100 % of control.
As for `COc1cc(-c2ccc(Nc3ccccc3C(=O)O)c(OC)c2)ccc1Nc1ccccc1C(=O)O`, the T/C (dose: 25.0 mg/kg/injection, schedule: Q01DX010 (ip), vehicle: saline) was 116 % of control; the T/C (dose: 100.0 mg/kg/injection, schedule: Q01DX010 (ip), vehicle: saline) was 155 % of control; the T/C (dose: 200.0 mg/kg/injection, schedule: Q01DX010 (ip), vehicle: saline) is 161 % of control.
As to `CSCS(=O)C[C@H](CO)NC(=O)/C=C/c1c(C)[nH]c(=O)[nH]c1=O` (stereo partly specified), the T/C is, setting by setting: (dose: 0.06 mg/kg/injection, schedule: Q01DX Z (ip), vehicle: saline) 102 % of control; (dose: 0.12 mg/kg/injection, schedule: Q01DX Z (ip), vehicle: saline) 96 % of control; (dose: 0.25 mg/kg/injection, schedule: Q01DX Z (ip), vehicle: saline) 107 % of control and 96 % of control; (dose: 0.5 mg/kg/injection, schedule: Q01DX Z (ip), vehicle: saline) 90 % of control and 96 % of control; (dose: 1.0 mg/kg/injection, schedule: Q01DX Z (ip), vehicle: saline) 97 % of control.
Regarding `Nc1nc(N)c2nc(CNc3ccc(C(=O)NC(CCC(=O)O)C(=O)O)cc3)cnc2n1` (stereo unspecified), the T/C is 100 % of control (dose: 0.05 mg/kg/injection, schedule: Q01DX010 (ip), vehicle: other); 116 % of control (dose: 0.1 mg/kg/injection, schedule: Q01DX010 (ip), vehicle: other); 177 % of control (dose: 0.2 mg/kg/injection, schedule: Q01DX010 (ip), vehicle: other); 194 % of control (dose: 0.4 mg/kg/injection, schedule: Q01DX010 (ip), vehicle: other).
Regarding `O=C(Nc1ccc(NC(=O)Nc2cccc(C3=NCCN3)c2)cc1)Nc1cccc(C2=NCCN2)c1`, the T/C is, setting by setting: (dose: 60.0 mg/kg/injection, schedule: Q01DX010 (ip), vehicle: saline) 163 % of control and 168 % of control; (dose: 120.0 mg/kg/injection, schedule: Q01DX010 (ip), vehicle: saline) 173 % of control and 210 % of control; (dose: 240.0 mg/kg/injection, schedule: Q01DX010 (ip), vehicle: saline) 221 % of control; (dose: 480.0 mg/kg/injection, schedule: Q01DX010 (ip), vehicle: saline) 152 % of control.
As for `CCn1cnc2c(=S)nc[nH]c21`, the T/C (dose: 15.6 mg/kg/injection, schedule: Q01DX Z (ip), vehicle: carboxymethylcellulose (CMC)) is 92 % of control; the T/C under setting [1] is 92 % of control; the T/C (dose: 62.5 mg/kg/injection, schedule: Q01DX010 (ip), vehicle: saline) is 90 % of control; the T/C under setting [2] is 93 % of control; the T/C (dose: 125.0 mg/kg/injection, schedule: Q01DX010 (ip), vehicle: saline) is 90 % of control.
Regarding `Clc1ncnc2nc[nH]c12`, the T/C reads like this: (dose: 7.5 mg/kg/injection, schedule: Q01DX010 (ip), vehicle: saline) 88 % of control; (dose: 30.0 mg/kg/injection, schedule: Q01DX010 (ip), vehicle: saline) 94 % of control; under setting [1], 86 % of control and 95 % of control; under setting [2], 101 % of control and 102 % of control and 105 % of control; under setting [3], 112 % of control and 114 % of control and 97 % of control; under setting [4], 106 % of control (2×) and 110 % of control.
As for `O=c1[nH]cc(F)c(=O)[nH]1`, the T/C by setting is: (dose: 5.0 mg/kg/injection, schedule: Q01DX010 (ip), vehicle: saline) 115 % of control and 118 % of control and 100 % of control; (dose: 10.0 mg/kg/injection, schedule: Q01DX010 (ip), vehicle: saline) 122 % of control; (dose: 20.0 mg/kg/injection, schedule: Q01DX010 (ip), vehicle: saline) 155 % of control and 190 % of control and 193 % of control.
Turning to `Nc1nc(=S)c2[nH]cnc2[nH]1`, the T/C is 101 % of control (dose: 0.12 mg/kg/injection, schedule: Q01DX Z (ip), vehicle: carboxymethylcellulose (CMC)); 105 % of control and 109 % of control (dose: 0.25 mg/kg/injection, schedule: Q01DX Z (ip), vehicle: carboxymethylcellulose (CMC)); 111 % of control and 122 % of control and 86 % of control (dose: 0.5 mg/kg/injection, schedule: Q01DX Z (ip), vehicle: carboxymethylcellulose (CMC)); 107 % of control and 100 % of control (dose: 1.0 mg/kg/injection, schedule: Q01DX Z (ip), vehicle: carboxymethylcellulose (CMC)); 103 % of control and 117 % of control and 98 % of control (dose: 2.0 mg/kg/injection, schedule: Q01DX Z (ip), vehicle: carboxymethylcellulose (CMC)); 115 % of control (dose: 2.5 mg/kg/injection, schedule: Q01DX010 (ip), vehicle: other). The T/C (dose: 4.0 mg/kg/injection, schedule: Q01DX Z (ip), vehicle: carboxymethylcellulose (CMC)) is 94 % of control; the T/C (dose: 5.0 mg/kg/injection, schedule: Q01DX010 (ip), vehicle: other) is 110 % of control and 94 % of control; the T/C (dose: 10.0 mg/kg/injection, schedule: Q01DX010 (ip), vehicle: other) is 94 % of control.
For `CN(C)c1nc(N(C)C)nc(N(C)C)n1`, the T/C reads like this: (dose: 75.0 mg/kg/injection, schedule: Q01DX010 (ip), vehicle: saline) 90 % of control; under setting [3], 97 % of control.
Regarding `CCOC(=O)NP(=O)(N1CC1(C)C)N1CC1(C)C` (stereo unspecified), the T/C is, setting by setting: (dose: 16.0 mg/kg/injection, schedule: Q01DX Z (ip), vehicle: carboxymethylcellulose (CMC)) 95 % of control; (dose: 31.0 mg/kg/injection, schedule: Q01DX Z (ip), vehicle: carboxymethylcellulose (CMC)) 98 % of control; under setting [2], 112 % of control; under setting [4], 180 % of control; (dose: 500.0 mg/kg/injection, schedule: Q01DX Z (ip), vehicle: carboxymethylcellulose (CMC)) 117 % of control.
As to `CC(=O)[C@H]1CC[C@H]2[C@@H]3C[C@H](C)C4=CC(=O)CC[C@]4(C)[C@H]3C(=O)C[C@]12C`, the T/C runs as follows: (dose: 25.0 mg/kg/injection, schedule: Q01DX Z (sc), vehicle: steriod suspending solution) 100 % of control; (dose: 50.0 mg/kg/injection, schedule: Q01DX Z (sc), vehicle: steriod suspending solution) 108 % of control; (dose: 100.0 mg/kg/injection, schedule: Q01DX Z (sc), vehicle: steriod suspending solution) 114 % of control; (dose: 200.0 mg/kg/injection, schedule: Q01DX Z (sc), vehicle: steriod suspending solution) 104 % of control and 105 % of control; (dose: 400.0 mg/kg/injection, schedule: Q01DX Z (sc), vehicle: steriod suspending solution) 110 % of control; (dose: 800.0 mg/kg/injection, schedule: Q01DX Z (sc), vehicle: steriod suspending solution) 100 % of control.
